What all share (assay): NCI-60 cell line screen, 48 h
Test [1] relates to SNB-19 CNS.
For test [2], the system named is MOLT-4 leukemia.
For test [3], the system named is RXF 393 renal.
The test system of test [4] is COLO 205 colon.
Test [5] has as its system SK-MEL-5 melanoma.
Test [6] concerns SF-295 CNS.
Test [7] deals with SR leukemia.
For test [8], the system named is A498 renal.
Test [9] concerns MDA-MB-231 breast.
Test [10] has as its system BT-549 breast.

The values that follow come from PubChem BioAssay (NCI).

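In this assay, cells in 96-well plates receive the compound at five concentrations for 48 hours. Endpoints are linearly interpolated between the surrounding concentrations. GI50 marks 50% less growth. TGI marks complete inhibition of growth.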 Some results are limits rather than exact numbers.

Turning to `CN(C)C=Nc1nc(=O)n(C2CCC(CO)O2)cc1F` (configuration not stated), the TGI in test [1], in test [2], in [3], in [4], in test [5] and in test [6] was over 100 µM each time.
Take `CCOC(=O)C1=C(C)N(NC(=O)Nc2ccccc2)C2(N)N(NC(=O)Nc3ccccc3)C(C)=C(C(=O)OCC)C12C(=O)OCC` (configuration not stated): the TGI is over 100 µM in [1]; 22.4 µM in [3]; 3.25 µM in test [4]; over 100 µM in test [7]; over 100 µM in test [8]; over 100 µM in test [5]. For the same molecule, the TGI in test [6] is over 100 µM.
For the molecule `CN(C)C(=S)/N=c1\ssc(=S)n1C1CCCCC1`, the TGI in test [1] was over 100 µM; in test [2], 52.3 µM; in test [3] it was over 100 µM; in test [7], 63.1 µM; in test [8], over 100 µM; in [5] it was 73.2 µM. The TGI in [6] was over 100 µM.
For the molecule `C#Cc1cccc(Nc2nc3cc([N+](=O)[O-])ccc3nc2Nc2ccc(O)cc2)c1`, the GI50 was 1.8 µM in [9]; 1.71 µM in test [10]; 1.78 µM in test [1]; 1.2 µM in [2]; 1.73 µM in test [3]; 1.9 µM in test [4]. For the same molecule, the results for the GI50 in [8] and in [5] were 3.08 µM and 1.79 µM, respectively. Also, the TGI in test [9] came to 3.8 µM; in test [10] it was 3.7 µM; in [1], 3.19 µM; in test [2], 4.17 µM; in [3], 3.58 µM; in [4], 3.71 µM. Moreover, the results for the TGI in test [8] and in [5] were 13.7 µM and 3.23 µM, respectively.
As to `O=C(NC1C=CCC2C(=O)N(c3ccccc3)C(=O)C12)OCc1ccccc1` (configuration not stated), the TGI in [1], in test [2], in test [3], in test [4], in test [7] and in [5] was over 100 µM in each case. Moreover, in test [6], the TGI was over 100 µM.
For `Cc1ccc(S(=O)(=O)N2CCC2c2ccccc2)cc1` (configuration not stated), the TGI in test [1], in test [2], in test [3], in test [4], in [8] and in [5] was over 100 µM throughout. This molecule also showed a TGI in test [6] of over 100 µM.
Consider `C[C@@]1(O)CC[C@]2(C)C3CCCC3[C@H]12` (some centres not stated), for which the TGI in test [1], in [2], in test [3], in [4], in test [7] and in test [8] was over 100 µM throughout. Moreover, the TGI in [5] and in test [6] was over 100 µM throughout.
Turning to `O=C1C(C(Nc2ccccc2)c2ccccc2)=C([O-])c2ccccc21.O=C1C(C(Nc2ccccc2)c2ccccc2)=C([O-])c2ccccc21.[Cu+2]` (configuration not stated), the GI50 was over 100 µM in [1]; 25.5 µM in test [2]; 32.1 µM in [4]; 42.2 µM in [7]; 30.6 µM in test [8]; 7.54 µM in [5]. In addition, the GI50 in test [6] was 48.2 µM. The TGI in [1], in test [2], in test [4], in test [7], in test [8] and in [5] was over 100 µM each time. The molecule also gave a TGI in [6] of over 100 µM.
As for `CN(C)CC(O)c1ccc(/C=C/c2ccc(Cl)cc2)cc1` (configuration not stated), the GI50 in test [9] was 1.7 µM; in test [1] it was 2.88 µM; in [3], 3.89 µM; in [4], 1.71 µM; in [8], 1.37 µM; in [5], 3.49 µM. Further, in [6], the GI50 is 1.53 µM. Further, the TGI in [9] was 3.14 µM; in [1] it was 10.4 µM; in test [3], 16.2 µM; in test [4] it was 3.17 µM; in test [8], 2.66 µM; in test [5] it was 13.7 µM. This molecule showed a TGI in test [6] of 3 µM.
Consider `O=c1c2cccnc2ncn1CCN1CCCCC1`, for which the TGI in test [1], in test [2], in test [3], in test [4], in test [7] and in test [5] was over 100 µM each time. In [6], this molecule had a TGI of over 100 µM.
For `COc1ccc2c(c1)[n+]([O-])c(C(N)=O)c(N)[n+]2[O-]`, the TGI in test [1] was over 100 µM; in test [4] it was 46.2 µM; in [7], over 100 µM; in test [8] it was over 100 µM; in [5], over 100 µM; in test [6] it was over 100 µM.
As to `COC1=CC(=O)C(C2(OC(C)C)OC(=O)C(Cl)=C2Cl)=CC1=O` (configuration not stated), the TGI in test [9], in test [1], in test [3], in [4], in test [8] and in test [5] was over 100 µM in each case. In [6], this molecule yielded a TGI of over 100 µM.
For the molecule `[O-][Cl+3]([O-])([O-])[O-].[O]=[Ru]=[O].c1ccc(-c2ccccn2)nc1.c1ccc(-c2ccccn2)nc1`, the GI50 in test [1] is 65.2 µM; in test [2] it was over 100 µM; in [3] it was 39.1 µM; in [4] it was over 100 µM; in [7], 4.07 µM; in test [8] it was over 100 µM. The GI50 in test [5] is 82.5 µM; in test [6] it was 60.2 µM. Further, the TGI in test [1] is over 100 µM; in test [2] it was over 100 µM; in [3], over 100 µM; in [4], over 100 µM; in test [7], 34.7 µM; in test [8] it was over 100 µM. Also, the TGI in test [5] and in test [6] was over 100 µM throughout.
